Assays:
[1] = system: IMQ-induced skin inflammation in Balb/c mice; test: Imiquimod (IMQ)-induced skin inflammation model; format: in vivo, mouse; conditions: day 4; for ear thickness: control-treated 0.17 ± 0.002 mm
Description: For IMQ-induced skin inflammation, wild-type (WT) Balb/c female mice, 5–8 weeks of age, were purchased from Charles River Laboratories. All mice were housed in pathogen-free conditions at Bristol Myers Squibb (Cambridge, MA). Aldara cream containing 5% imiquimod (Patterson Veterinary Supply, Inc; Devens, MA) was applied to the ears daily (11–14 mg) for 3 days. Mice were treated twice daily (BID) on days 1–4 per os (PO) with vehicle (0.5% methylcellulose/0.25% Tween80) or RORγt inhibitors at indicated doses immediately prior to Aldara application. Ear thickness was measured using micro-calipers. Tissues were harvested on day 4, 2 hours following the last compound dose. Naïve mice are completely untreated, receiving neither control vehicle for IMQ nor Compound.
For RNA isolation & gene expression, ears are collected on day 4 in RNAlater (Qiagen) and stored at 4°C until processed. Ears were homogenized using Procellys 24 homogenizer & hard tissue homogenizing beads (Bertin Instruments), 2 cycles of 30 seconds @ 6000 rpm in RLT lysis buffer according to manufacturer’s instructions. RNA was isolated using RNAeasy Plus MiniPrep columns (Qiagen) and cDNA generated using SuperScript VILO cDNA Synthesis kit (Invitrogen). Gene expression was quantified using TaqMan Fast Master Mix & and TaqMan FAM-MGB probe sets (Applied Biosystems): Gapdh, Mm99999915_g1, Il17a, Mm00439618_m1, Il17f, Mm00521423_m1, Il22, Mm01226722_g1 & Bclxl, Mm00437783_m1. QPCR reactions were run on QuantStudio 7 instrument. Relative quantification and fold changes were calculated using ddCT values against Gapdh and normalized to control-treated animals. For PDAC xenografts, RNA was isolated from tumor sections using Qiagen RNeasy kit (cat#74106), then cDNA was prepared using 2 μg of RNA and the high capacity RNA to cDNA kit (Applied Biosystems, cat#4387406) as per manufacturer’s instructions. Biomarker expression was determined using Taqman gene expression probes (S1 Table) and Universal master mix (ThermoFisher Scientific cat#4305719) with expression levels normalized to Gapdh.
For cytokine production, ears are removed, split in half using forceps and floated, dermis side-down, in DMEM media (Gibco) and incubated at 37° C for 24 hours. Following incubation, media was removed and cytokine production assessed by Luminex assay (Bio-Rad Laboratories).

[2] = Intra-tumoral compound concentration, KP/C mouse model; format: in vivo; conditions: 16 hours post dosing, mean ± SD
Description: In the IMQ-induced inflammation model, whole blood (300–500 μL) was collected and centrifuged (1000 g x 10 min) at 20° C to obtain plasma samples. […] Plasma standard curves were prepared by adding each test compound in to mouse plasma and serial diluting to desired concentration. Blank tumor homogenate and blank plasma was add to plasma standards and tumor homogenate samples, respectively, at 1:1 (v:v) ratio for matrix match of tumor sample analysis. An aliquot of 50 μL of each plasma sample, each tumor sample and each corresponding standards was added to 200 μL of acetonitrile with 100 ng/mL of carbutamide (Sigma Aldrich, St. Louis, MO), internal standard (IS), for protein precipitation, then filtered through a 96-well Orochem filtration plate (Orochem Technologies Inc., Naperville IL). Each extracted test compound in resultant supernatant was analyzed with appropriate liquid chromatography column eluting to a Sciex QTRAP 6500+ LC/MS/MS system (Applied Biosystems, Foster City, CA). Each analyte was characterized by Turbo IonSpray ionization multiple reaction monitoring (MRM). Quantitative drug concentrations were determined by standard calibration curve analysis, using linear fitting with 1/x^2 weighted plot of the analyte/IS peak area ratio vs analyte concentration. […]

tumor concentration ([2]; in combination with gemcitabine): 222 pmol/g
tumor concentration ([2]; single agent): 47 pmol/g
Compound: O=C(O)[C@@H]1CCC(c2nn(C(=O)c3c(Cl)cccc3C(F)(F)F)c3cccc(F)c23)=C[C@H]1O [Compound 3]
ear thickness ([1]; 25 mg/kg PO): 0.163 ± 0.002 mm
ear thickness ([1]; 50 mg/kg PO): 0.156 ± 0.001 mm
ear thickness ([1]; 100 mg/kg PO): 0.143 ± 0.002 mm
Th17-cytokine gene expression in ear skin ([1]; 50 and 100 mg/kg dosed groups): reduced
Bclxl expression in skin tissues ([1]; oral administration, IMQ model): significantly reduced

Reference: paper PMC8577775, “Small molecule allosteric inhibitors of RORγt block Th17-dependent inflammation and associated gene expression in vivo” (PLoS ONE, 2021)
